Experiments:
[1] = Stability tests on rifampicin in acid, neutral and basic environments (FIG. 1); format: physicochemical
[2] = oral, 600 mg, healthy volunteers; cited from earlier work
[3] = determined by the intestinal pH values; cited from earlier work
[4] = cited from earlier work
[5] = in vivo, cited from earlier work

stability ([1]; acid environment): less stable | stability ([1]; neutral and weakly alkaline environments): sufficiently stable
Structure (SMILES): CO[C@H]1/C=C/O[C@@]2(C)Oc3c(C)c(O)c4c(O)c(c(/C=N/N5CCN(C)CC5)c(O)c4c3C2=O)NC(=O)/C(C)=C\C=C\[C@H](C)[C@H](O)[C@@H](C)[C@@H](O)[C@@H](C)[C@H](OC(C)=O)[C@@H]1C [rifampicin]
maximum blood concentration (Cmax) [2]: 9000 ng/mL | solubility in the intestine [3]: 1000 to 6000 µg/mL | pKa [4]: 1.7 | dose eliminated in the urine ([5]; po): approx. 20 % of the dose | amount present in the plasma relative to that eliminated by the renal route [5]: 5 times

— patent US20130115286A1, “ORAL ADMINISTRATION FORMS FOR CONTROLLED RELEASE OF RIFAMPICIN FOR THE TREATMENT OF BACTERIAL INFECTIONS AND INFLAMMATORY DISEASES OF THE GASTROINTESTINAL TRACT” (priority 2010, published 2013)
